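Interpolation was linear, between the two tested concentrations surrounding the appropriate level; five concentrations were tested over 48 hours in 96-well plates. GI50 is the concentration that inhibits growth by half. At the TGI there is no net growth.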
Assays:
Test in all cases: growth of human tumour cells (NCI), 48 h
786-0 renal = system: 786-0 renal
A498 renal = system: A498 renal
A549 NSCLC = system: A549 NSCLC
ACHN renal = system: ACHN renal
CAKI-1 renal = system: CAKI-1 renal
CCRF-CEM leukemia = system: CCRF-CEM leukemia
COLO 205 colon = system: COLO 205 colon
DLD-1 colon = system: DLD-1 colon
DMS 114 small cell lung = system: DMS 114 small cell lung
DMS 273 small cell lung = system: DMS 273 small cell lung
EKVX NSCLC = system: EKVX NSCLC
HCC-2998 colon = system: HCC-2998 colon
HCT-116 colon = system: HCT-116 colon
HCT-15 colon = system: HCT-15 colon
HL-60(TB) leukemia = system: HL-60(TB) leukemia
HOP-18 NSCLC = system: HOP-18 NSCLC
HOP-62 NSCLC = system: HOP-62 NSCLC
HOP-92 NSCLC = system: HOP-92 NSCLC
HT29 colon = system: HT29 colon
IGROV1 ovarian = system: IGROV1 ovarian
K-562 leukemia = system: K-562 leukemia
KM12 colon = system: KM12 colon
KM20L2 colon = system: KM20L2 colon
LOX IMVI melanoma = system: LOX IMVI melanoma
LXFL 529 NSCLC = system: LXFL 529 NSCLC
M14 melanoma = system: M14 melanoma
M19-MEL melanoma = system: M19-MEL melanoma
MALME-3M melanoma = system: MALME-3M melanoma
MOLT-4 leukemia = system: MOLT-4 leukemia
NCI-H226 lung = system: NCI-H226 lung
NCI-H23 lung = system: NCI-H23 lung
NCI-H460 lung = system: NCI-H460 lung
NCI-H522 lung = system: NCI-H522 lung
OVCAR-3 ovarian = system: OVCAR-3 ovarian
OVCAR-4 ovarian = system: OVCAR-4 ovarian
OVCAR-5 ovarian = system: OVCAR-5 ovarian
OVCAR-8 ovarian = system: OVCAR-8 ovarian
RXF 393 renal = system: RXF 393 renal
SF-268 CNS = system: SF-268 CNS
SF-295 CNS = system: SF-295 CNS
SF-539 CNS = system: SF-539 CNS
SK-MEL-2 melanoma = system: SK-MEL-2 melanoma
SK-MEL-28 melanoma = system: SK-MEL-28 melanoma
SK-MEL-5 melanoma = system: SK-MEL-5 melanoma
SK-OV-3 ovarian = system: SK-OV-3 ovarian
SN12C renal = system: SN12C renal
SNB-19 CNS = system: SNB-19 CNS
SNB-75 CNS = system: SNB-75 CNS
SNB-78 CNS = system: SNB-78 CNS
SR leukemia = system: SR leukemia
SW-620 colon = system: SW-620 colon
TK-10 renal = system: TK-10 renal
U251 CNS = system: U251 CNS
UACC-257 melanoma = system: UACC-257 melanoma
UACC-62 melanoma = system: UACC-62 melanoma
UO-31 renal = system: UO-31 renal
XF 498 CNS = system: XF 498 CNS

Compound: CCC[CH2][Sn]([CH2]CCC)([O]C(=O)c1cc(F)cc(F)c1)[O][Sn]([CH2]CCC)([CH2]CCC)[O]C(=O)c1cc(F)cc(F)c1
- GI50 (786-0 renal): 1270 nM
- TGI (786-0 renal): 2530 nM
- GI50 (A498 renal): 1430 nM
- TGI (A498 renal): 2830 nM
- GI50 (A549 NSCLC): 9780 nM
- TGI (A549 NSCLC): 21800 nM
- GI50 (ACHN renal): 1510 nM
- TGI (ACHN renal): 2830 nM
- GI50 (CAKI-1 renal): 663 nM
- TGI (CAKI-1 renal): 1950 nM
- GI50 (CCRF-CEM leukemia): 101 nM
- TGI (CCRF-CEM leukemia): 886 nM
- GI50 (COLO 205 colon): 1050 nM
- TGI (COLO 205 colon): 2340 nM
- GI50 (DLD-1 colon): 1150 nM
- TGI (DLD-1 colon): 2410 nM
- GI50 (DMS 114 small cell lung): 379 nM
- TGI (DMS 114 small cell lung): 1530 nM
- GI50 (DMS 273 small cell lung): 1230 nM
- TGI (DMS 273 small cell lung): 2470 nM
- GI50 (EKVX NSCLC): 1310 nM
- TGI (EKVX NSCLC): 2590 nM
- GI50 (HCC-2998 colon): 1710 nM
- TGI (HCC-2998 colon): 3320 nM
- GI50 (HCT-116 colon): 1350 nM
- TGI (HCT-116 colon): 2630 nM
- GI50 (HCT-15 colon): 1380 nM
- TGI (HCT-15 colon): 2790 nM
- GI50 (HL-60(TB) leukemia): 374 nM
- TGI (HL-60(TB) leukemia): 2230 nM
- GI50 (HOP-18 NSCLC): 1960 nM
- TGI (HOP-18 NSCLC): 3380 nM
- GI50 (HOP-62 NSCLC): 5000 nM
- TGI (HOP-62 NSCLC): 14300 nM
- GI50 (HOP-92 NSCLC): 1250 nM
- TGI (HOP-92 NSCLC): 2520 nM
- GI50 (HT29 colon): 1910 nM
- TGI (HT29 colon): 4090 nM
- GI50 (IGROV1 ovarian): 1640 nM
- TGI (IGROV1 ovarian): 3310 nM
- GI50 (K-562 leukemia): 256 nM
- TGI (K-562 leukemia): 1120 nM
- GI50 (KM12 colon): 3580 nM
- TGI (KM12 colon): 12400 nM
- GI50 (KM20L2 colon): 3100 nM
- TGI (KM20L2 colon): 10600 nM
- GI50 (LOX IMVI melanoma): 1050 nM
- TGI (LOX IMVI melanoma): 2350 nM
- GI50 (LXFL 529 NSCLC): 152 nM
- TGI (LXFL 529 NSCLC): 612 nM
- GI50 (M14 melanoma): 1480 nM
- TGI (M14 melanoma): 2810 nM
- GI50 (M19-MEL melanoma): 519 nM
- TGI (M19-MEL melanoma): 2000 nM
- GI50 (MALME-3M melanoma): 889 nM
- TGI (MALME-3M melanoma): 2180 nM
- GI50 (MOLT-4 leukemia): 318 nM
- TGI (MOLT-4 leukemia): 2150 nM
- GI50 (NCI-H226 lung): 1450 nM
- TGI (NCI-H226 lung): 2810 nM
- GI50 (NCI-H23 lung): 606 nM
- TGI (NCI-H23 lung): 1880 nM
- GI50 (NCI-H460 lung): 2670 nM
- TGI (NCI-H460 lung): 6740 nM
- GI50 (NCI-H522 lung): 53.8 nM
- TGI (NCI-H522 lung): 185 nM
- GI50 (OVCAR-3 ovarian): 1520 nM
- TGI (OVCAR-3 ovarian): 2860 nM
- GI50 (OVCAR-4 ovarian): 2040 nM
- TGI (OVCAR-4 ovarian): 3510 nM
- GI50 (OVCAR-5 ovarian): 1920 nM
- TGI (OVCAR-5 ovarian): 3430 nM
- GI50 (OVCAR-8 ovarian): 1280 nM
- TGI (OVCAR-8 ovarian): 2540 nM
- GI50 (RXF 393 renal): 423 nM
- TGI (RXF 393 renal): 1560 nM
- GI50 (SF-268 CNS): 910 nM
- TGI (SF-268 CNS): 2190 nM
- GI50 (SF-295 CNS): 1670 nM
- TGI (SF-295 CNS): 3060 nM
- GI50 (SF-539 CNS): 1340 nM
- TGI (SF-539 CNS): 2800 nM
- GI50 (SK-MEL-2 melanoma): 1020 nM
- TGI (SK-MEL-2 melanoma): 2200 nM
- GI50 (SK-MEL-28 melanoma): 1140 nM
- TGI (SK-MEL-28 melanoma): 2380 nM
- GI50 (SK-MEL-5 melanoma): 1460 nM
- TGI (SK-MEL-5 melanoma): 2770 nM
- GI50 (SK-OV-3 ovarian): 3040 nM
- TGI (SK-OV-3 ovarian): 8380 nM
- GI50 (SN12C renal): 1410 nM
- TGI (SN12C renal): 2760 nM
- GI50 (SNB-19 CNS): 1520 nM
- TGI (SNB-19 CNS): 2860 nM
- GI50 (SNB-75 CNS): 1260 nM
- TGI (SNB-75 CNS): 2710 nM
- GI50 (SNB-78 CNS): 584 nM
- TGI (SNB-78 CNS): 2290 nM
- GI50 (SR leukemia): 372 nM
- TGI (SR leukemia): 4320 nM
- GI50 (SW-620 colon): 626 nM
- TGI (SW-620 colon): 1920 nM
- GI50 (TK-10 renal): 1410 nM
- TGI (TK-10 renal): 2720 nM
- GI50 (U251 CNS): 1080 nM
- TGI (U251 CNS): 2280 nM
- GI50 (UACC-257 melanoma): 1110 nM
- TGI (UACC-257 melanoma): 2340 nM
- GI50 (UACC-62 melanoma): 1400 nM
- TGI (UACC-62 melanoma): 2700 nM
- GI50 (UO-31 renal): 1660 nM
- TGI (UO-31 renal): 3020 nM
- GI50 (XF 498 CNS): 1400 nM
- TGI (XF 498 CNS): 2710 nM
